Test results as given in patent publication US12144365B2, “Emulsions and derivatives for infusing hydrophobic active agents into an edible product” (priority 2021, dated 2024).

experiment: Potency loss of actives infused into isomalt based candy at 300° F.; type: physicochemical

Structure (SMILES)	Potency loss %: 300° F. for 5 minutes, Infused by Quillaja extract emulsion [%]	Potency loss %: 300° F. for 5 minutes, Infused by gum acacia emulsion [%]	Potency loss %: 300° F. for 15 minutes, Infused by Quillaja extract emulsion [%]	Potency loss %: 300° F. for 15 minutes, Infused by gum acacia emulsion [%]
C=C(C)[C@@H]1CCC(C)=C[C@H]1c1c(O)cc(CCCCC)cc1O [CBD, cannabidiol, reference compound]	−5	−3	−4	−2
CCCCCc1cc(O)c2c(c1)OC(C)(C)c1ccc(C)cc1-2 [CBN, cannabinol]	−1	0	−1	0
C=C(C)[C@H]1CC=C(C)CC1 [Limonene, limonene]	−37	−12	−69	−17
C=CC(=C)CCC=C(C)C [Myrcene, myrcene]	−26	−10	−51	−15
CCCCCc1cc(O)c2c(c1)OC(C)(C)[C@@H]1CCC(C)=C[C@@H]21 [THC, tetrahydrocannabinol, reference compound]	−15	−8	−25	−16
